Measurements: patent US7264947B2, “Activity dependent neurotrophic factor III (ADNF III)” (United States of America, as represented by the Secretary …, priority 1997, dated 2007)
Read-outs that look alike come from different tables or passages of the source.

Columns and labels:
[1] = test system: choline acetyl transferase; experiment: brain ChAT (choline acetyl transferase) activity in ApoE-deficient mice; assay type: in vivo; conditions: daily subcutaneous injections from birth to 14 days, measured at 21 days
Procedure: The graph depicts incorporation of radio-labeled choline into acetylcholine. Experiments were conducted as described. Apo-E deficient mice are designated: ApoE; 100% activity in the control (C57B6) mice indicated 669758.4 pmole/mg protein/min. As the experiments were repeated 3-5 times the results were standardized against the control calibrated at 100% per each experiment. ApoE-deficient mice daily injected with peptides are designated ADNF-14, ADNF-9, and NAP, respectively.
ChAT activity was measured according to published procedures (Formum et al., Neurochem. 24:407-409 (1975)). Brains were homogenized with 10 volumes of 50 mM phosphate buffer containing 300 mM NaCl, 20 mM EDTA, and 0.5% triton. The homogenates were centrifuged at 12,000×g for 15 min., and […] of supernatant was mixed with […] of a solution of […] ^14C-acetyl CoA ([…] NEN), 20 mM acetylcholine, 1.6 mM choline chloride, 0.25 mM eserine, and phosphate buffer. Incubation was 15 min. at 37° C. The reaction was terminated and radioactivity was measured in a beta-counter. • 21. Apolipoprotein E (ApoE) Deficient Mouse Model
(§1) ApoE knockout mice and normal controls were a gift from the late Prof. Shlomo Eisenberg of Tel Aviv University, originally provided by Dr. J. L. Breslow (Plump et al., Cell 71:343-353 (1992)). The ApoE knockout mice were obtained from embryonic stem cells OLA 129 in C57B6×FVB mice (as described). Age-matched controls were inbred C57B6 mice. Groups of mouse pups were treated from birth until the age of 14 days. Daily subcutaneous injections included: […] saline (days 1 through 4), […] saline (days 5 through 10) and […] saline (days 11-14).
ChAT activity was measured according to published procedures (Formum et al., Neurochem. 24:407-409 (1975)).

[2] = test system: ApoE-deficient mice; experiment: developmental milestones (placing response, cliff avoidance) in ApoE-deficient mice; assay type: in vivo; conditions: for acquisition of the placing response and the cliff avoidance response: daily injection; for marked improvement of placing response at the first day of treatment: tested 60 min. after injection
From the text: Animals (15-37 per experimental group, 5-8 per litter) were submitted to placing response assays daily following injection of: 1. saline (open circles, C57B6 mice=control, n=37, closed circles, ApoE deficient=ApoE, n=22). Experiments were repeated three times. Score indicates: 0=no reaction, 1=time to acquire a response shorter than 15 seconds; 2=time to acquire a response shorter than 10 seconds; 3=time to acquire a response shorter than 5 seconds. Age (days) indicate: the age of the tested animals in days. Results are mean±SEM.
as §1
Developmental milestones were measured using at least three dams with […] each for every experimental point. All observations were made between 12 noon and 4 pm. From day one through day six, mice were weighed and tested 60 min. after the daily injection. Placing is a behavioral parameter that is measured as the time elapsing between contact of the foot against the edge of an object and its placing on the top of the same object.
Further measurements in the Apo-E-deficient mouse included assessments of the time of onset of developmental milestones of behavior. […] A significant difference was observed among the treatment groups on the first day of testing (P<0.0001), with inbred C57B6 mice developing faster than the ApoE-deficient animals. […] NAP-treated animals were the fastest.

[3] = test system: cerebral cortical cultures; assay type: cell-based, newborn rats; conditions: for dilutions giving significant neuroprotection against tetrodotoxin: dilutions of a 1 mg/ml protein solution (E. coli extract) in PBS, 1 μM tetrodotoxin, five days
[4] = test system: ADNF III mRNA; experiment: mimic polymerase chain reaction of ADNF III mRNA in mouse embryos incubated in vitro; assay type: cell-based; conditions: 9.5-day-old mouse embryos incubated in vitro for four hours, ratio with cyclophilin mRNA
[5] = test system: astrocytes; experiment: western blot of secreted ADNF-like immunoreactivity in astrocyte conditioned medium; assay type: cell-based, rat
From the text: FIGS. 4A-B. FIG. 4A illustrates the western blot hybridization for immunological detection of the cloned ADNF III protein from bacterial extracts. Bacterial extracts expressing clone p25 were subjected to 10% SDS-polyacrylamide gel electrophoresis followed by western blot analysis with the antibodies used for cloning. […] CBB=Coomassie Brilliant Blue (protein) staining of the same lanes that were subjected western blot analysis. […] FIG. 4B illustrates immunological identification of a secreted ADNF III protein in astrocyte conditioned medium. Astrocyte-conditioned medium was prepared as described supra (see Brenneman & Gozes, J. Clin. Invest. 97:[…] (1996)), with a protein of a high molecular weight identified as the ADNF III molecule by western blot hybridization. SDS-polyacrylamide gel electrophoresis was performed as indicated in the above cited paper. Astroglial cultures obtained from newborn rat cerebral cortex were utilized. Cell extracts and conditioned medium from astrocytes that were treated or untreated with VIP (+, −) were subjected to electrophoresis through 10% polyacrylamide slab gel containing 0.1% SDS. Western blot analysis was performed with antibodies utilized for the cloning (anti-SALLRSIPA=α1).
a. Astrocytes: Astrocytes were prepared from 1-day-old (Sprague-Dawley) rats. […]

[6] = test system: cerebral cortical cultures; experiment: neuroprotection against β-amyloid peptide (25-35) neurotoxicity in cerebral cortical cultures; assay type: cell-based, newborn rats; conditions: dilutions of a 1 mg/ml protein solution (E. coli extract) in PBS, 25 μM β-amyloid fragment 25-35, five days
[7] = test system: neuronal cell death; experiment: neuroprotective effects of ADNF III (summary statement); assay type: cell-based
From the text: The present invention relates to the discovery of a nucleic acid encoding a novel neuroprotective polypeptide, i.e., Activity Dependent Neurotrophic Factor III (ADNF III), also called Activity Dependent Neuroprotective Protein (ADNP). […] Based on the recognized homology between ADNF I and hsp60, a heat shock protein, and PIF1, a DNA repair protein, these two epitopes were utilized to prepare antibodies which, in turn, were used to screen a mouse cDNA-expression library to identify the new neuroprotective polypeptide ADNF III. One mouse ADNF III cDNA clone consists of about 2418 base pairs of an open reading frame, which encodes an ADNF III polypeptide of about 806 amino acids, pI 5.85 (nucleotide sequence, SEQ ID NO:4; amino acid sequence, SEQ ID NO:3, see FIG. 1). An additional mouse cDNA has been cloned, encoding an ADNF III polypeptide of about 828 amino acids, pI 5.99 (nucleotide sequence, SEQ ID NO:54; amino acid sequence, SEQ ID NO:55; see FIG. 11). Human cDNAs encoding ADNF III have also been cloned (“H3” nucleotide sequence, SEQ ID NO:2; “H3” amino acid sequence, SEQ ID NO:1; “H3” nucleotide sequence, SEQ ID NO:56 and FIG. 12; “H3” amino acid sequence, SEQ ID NO:57 and FIG. 12; “H7” nucleotide sequence, SEQ ID NO:58 and FIG. 13; and “H7” amino acid sequence, SEQ ID NO:59 and FIG. 13). […] The promoter sequence for ADNF III has also been cloned (SEQ ID NO:60 and FIG. 14).

VLGGGSALLRSIPA [ADNF-14]
brain ChAT activity compared with vehicle-treated or untreated ApoE-deficient mice [1]: did not significantly improve
level of performance reached in placing response [2]: never reached the level of performance of the NAP or ADNF-9 animals
day on which a significant difference between treated and untreated animals began to appear (placing response) ([2]; P<0.05): third postnatal day
acquisition of the placing response and the cliff avoidance response [2]: showed acceleration
marked improvement of placing response at the first day of treatment [2]: not

SVRLGLGGNAPVSIPQQS [reference compound]
neuroprotection (in words) ([3]; FIG. 6A/6B, toxin for the control curves not stated): inactive

SALLRSIPA [ADNF-9]
brain ChAT activity compared with vehicle-treated or untreated ApoE-deficient mice [1]: did not significantly improve
placing response from the second postnatal day onwards ([2]; P<0.0001): best performers
acquisition of the placing response and the cliff avoidance response [2]: showed acceleration
marked improvement of placing response at the first day of treatment [2]: marked improvement

VIP: 28-amino acid peptide, secretagogue for ADNF
increase in ADNF III mRNA [4]: two-fold
increase in the secreted 60 KD ADNF-like immunoreactivity [5]: up to 2 fold

B1: clone 25: full length ADNF III expressed from clone 25, tested as E. coli protein extract (protein)
chain: MVNRLSIPKPNLNSTGVNMMSNVHLQQNNYGVKSVGQSYGVGQSVRLGLGGNAPVSIPQQSQSVKQLLPSGNGRSFGLGAEQRPPAAARYSLQTANTSLPPGQVKSPSVSQSQASRVLGQSSSKPPPAATGPPPSNHCATQKWKICTICNELFPENVYSVHFEKEHKAEKVPAVANYIMKIHNFTSKCLYCNRYLPTDTLLNHMLIHGLSCPYCRSTFNDVEKMAAHMRMVHIDEEMGPKTDSTLSFDLTLQQGSHTNIHLLVTTYNLRDAPAESVAYHAQNNAPVPPKPQPKVQEKADVPVKSSPQAAVPYKKDVGKTLCPLCFSILKGPISDALAHHLRERHQVIQTVHPVEKKLTYKCIHCLGVYTSNMTASTITLHLVHCRGVGKTQNGQDKTNAPSRLNQSPGLAPVKRTYEQMEFPLLKKRKLEEDADSPSCFEEKPEEPVVLALDPKGHEDDSYEARKSFLTKYFNKQPYPTRREIEKLAASLWLWKSDIASHFSNKRKKCVRDCEKYKPGVLLGFNMKELNKVKHEMDFDAEWLFENHDEKDSRVNASKTVDKKHNLGKEDDSFSDSFEHLEEESNGSGSPFDPVFEVEPKIPSDNLEEPVPKVIPEGALESEKLDQKEEEEEEEEEDGSKYETIHLTEEPAKLMHDASDSEVDQDDVVEWKDGASPSESGPGSQQISDFEDNTCEMKPGTWSDESSQSEDARSSKPAAKKKATVQDDTEQLKWKNSSYGKVEGFWSKDQSQWENASENAERLPNPQIEWQNSTIDSEDGEQFDSMTDGVADPMHGSLTGVKLSSQQA
modifications: left off: large carriers
notes: full length ADNF III expressed from clone 25, tested as E. coli protein extract
dilutions giving significant neuroprotection against tetrodotoxin [3]: 10^−15-10^−13
dilutions giving significant neuroprotection against tetrodotoxin ([3]; listed as clone p25): 10^−14
dilutions giving significant neuroprotection against β-amyloid [6]: > 10^−15
dilutions giving significant neuroprotection against β-amyloid ([6]; listed as clone p25): 10^−14
EC50 of neuroprotective effects [7]: in the femtomolar range
